Converted amounts (≈) assume the structure as drawn. Like-named read-outs stand apart in the source and are kept apart here.
Experiments:
Type in all cases: cell-based
[1] = system: E. faecalis VanB E80-8; experiment: Antimicrobial susceptibility testing (CLSI broth dilution MIC); conditions: for MIC: Enterococcus faecalis, VANBE808, representative pathogens for skin infections, read-out: Minimum Inhibitory Concentration (MIC) E. faecalis VanB E80-8; for Minimum Inhibitory Concentration (MIC) E. faecalis VanB E80-8: representative pathogens for gastro-intestinal infections
Procedure: (§1) Antimicrobial susceptibility testing was performed in accordance with the Clinical and Laboratory Standards Institute (CLSI).
(§2) Clinical and Laboratory Standards Institute (CLSI; formerly NCCLS): Methods for Dilution Antimicrobial Susceptibility Tests for Bacteria That Grow Aerobically; Approved Standard—Seventh Edition (2006). Clinical and Laboratory Standards Institute document M7-A7.

[2] = system: S. aureus ATCC 25923; experiment: as above; conditions: Staphylococcus aureus, ATCC25923
Procedure: as §1, §2

[3] = system: S. aureus MRSA 101; experiment: as above; conditions: Staphylococcus aureus
Procedure: as §1, §2

[4] = system: S. aureus MRSA 39; experiment: as above; conditions: for MIC: Staphylococcus aureus, MRSA, representative pathogens for nasal colonization, read-out: Minimum Inhibitory Concentration (MIC) S. aureus MRSA 39
Procedure: as §1, §2

[5] = system: S. epidermidis MRSE 70; experiment: as above; conditions: for MIC: Staphylococcus epidermidis, MRSE, representative pathogens for nasal colonization, read-out: Minimum Inhibitory Concentration (MIC) S. epidermidis MRSE 70
Procedure: as §1, §2

[6] = system: S. pneumoniae 1/1; experiment: Antimicrobial susceptibility testing of streptococci (CLSI, Todd Hewitt Broth without blood); conditions: Streptococcus pneumoniae, representative pathogens for ocular infections, read-out: Minimum Inhibitory Concentration (MIC) S. pneumoniae 1/1
Procedure: (§3) Antimicrobial susceptibility testing was performed in accordance with the Clinical and Laboratory Standards Institute (CLSI). Clinical and Laboratory Standards Institute (CLSI; formerly NCCLS): Methods for Dilution Antimicrobial Susceptibility Tests for Bacteria That Grow Aerobically; Approved Standard—Seventh Edition (2006). Clinical and Laboratory Standards Institute document M7-A7. Streptococci (S. pneumoniae, S. pyogenes, S. viridans) were tested following the CLSI methodology with the exception that Todd Hewitt Broth without blood was used. Anaerobic bacteria (P. acnes, B. distasonis) were tested following CLSI (formerly NCCLS) guidelines except for using microbroth dilutions in Wilkins Chalgren Broth. National Committee for Clinical Laboratory Standards (NCCLS). Methods for Anti-microbial Susceptibility Testing of Anaerobic Bacteria; Approved Standard—Sixth Edition (2004). NCCLS document M11-A6.

[7] = system: S. pyogenes GAS-1; experiment: as above; conditions: for MIC: Streptococcus pyogenes, GAS1, representative pathogens for ocular infections, read-out: Minimum Inhibitory Concentration (MIC) S. pyogenes GAS-1; for Minimum Inhibitory Concentration (MIC) S. pyogenes GAS-1: representative pathogens for skin infections
Procedure: as §3

[8] = system: S. viridans UHC7; experiment: as above; conditions: Streptococcus viridans, representative pathogens for dental infections, read-out: Minimum Inhibitory Concentration (MIC) S. viridans UHC7
Procedure: as §3

[9] = system: B. distasonis 5770; experiment: Antimicrobial susceptibility testing of anaerobic bacteria (microbroth dilution, Wilkins Chalgren Broth); conditions: Parabacteroides distasonis, representative pathogens for gastro-intestinal infections, read-out: Minimum Inhibitory Concentration (MIC) B. distasonis 5770
Procedure: as §3, with “(CLSI).” for “(CLSI). Clinical and Laboratory Standards Institute (CLSI; formerly NCCLS): Methods for Dilution Antimicrobial Susceptibility Tests for Bacteria That Grow Aerobically; Approved Standard—Seventh Edition (2006). Clinical and Laboratory Standards Institute document M7-A7.”

[10] = system: P. acnes 6390; experiment: as above; conditions: Cutibacterium acnes, representative pathogens for skin infections, read-out: Minimum Inhibitory Concentration (MIC) P. acnes 6390
Procedure: as §3, with “(CLSI).” for “(CLSI). Clinical and Laboratory Standards Institute (CLSI; formerly NCCLS): Methods for Dilution Antimicrobial Susceptibility Tests for Bacteria That Grow Aerobically; Approved Standard—Seventh Edition (2006). Clinical and Laboratory Standards Institute document M7-A7.”

[11] = representative pathogens for nasal colonization, read-out: Minimum Inhibitory Concentration (MIC) S. aureus ATCC 25923
[12] = representative pathogens for ocular infections, read-out: Minimum Inhibitory Concentration (MIC) S. aureus 25923
[13] = representative pathogens for nasal colonization, read-out: Minimum Inhibitory Concentration (MIC) S. aureus MRSA 101
[14] = representative pathogens for ocular infections, read-out: Minimum Inhibitory Concentration (MIC) S. aureus MRSA101
[15] = representative pathogens for ocular infections
[16] = representative pathogens for skin infections

`O=C(Nc1cc(Br)cc(C(F)(F)F)c1)Nc1ccc(Cl)c(C(F)(F)F)c1` [Example 1, 1-(3-Bromo-5-trifluoromethyl-phenyl)-3-(4-chloro-3-trifluoromethyl-phenyl)-urea] was tested, and the MIC [1] was 2 µg/mL (≈ 4.33 µM), the “Minimum Inhibitory Concentration (MIC) E. faecalis VanB E80-8” value [1] was 2 micrograms/ml and the MIC [2, 11] was 0.5 µg/mL (≈ 1.08 µM). For the same compound, the MIC [2, 12] was 0.5 µg/mL (≈ 1.08 µM), the MIC [3, 13] was 0.125 µg/mL (≈ 0.271 µM) and the MIC [3, 14] was 0.125 µg/mL (≈ 0.271 µM). The MIC [4] was 0.25 µg/mL (≈ 0.542 µM), the “Minimum Inhibitory Concentration (MIC) S. aureus MRSA 39” value [4, 15] was 0.25 micrograms/ml and the “Minimum Inhibitory Concentration (MIC) S. aureus MRSA 39” value [4, 16] was 0.25 micrograms/ml. The MIC [5] was 0.25 µg/mL (≈ 0.542 µM), the “Minimum Inhibitory Concentration (MIC) S. epidermidis MRSE 70” value [5, 15] was 0.25 micrograms/ml and the “Minimum Inhibitory Concentration (MIC) S. epidermidis MRSE 70” value [5, 16] was 0.25 micrograms/ml. For the same compound, the MIC [6] was 0.125 µg/mL (≈ 0.271 µM), the MIC [7] was 0.25 µg/mL (≈ 0.542 µM) and the “Minimum Inhibitory Concentration (MIC) S. pyogenes GAS-1” value [7] was 0.25 micrograms/ml. For the same compound, the MIC [8] was 0.5 µg/mL (≈ 1.08 µM), the MIC [9] was 0.5 µg/mL (≈ 1.08 µM) and the MIC [10] was no more than 0.03 µg/mL.
With `FC(F)(F)c1cc(Br)cc(NC(=S)Nc2ccc(Cl)c(C(F)(F)F)c2)c1` [Example 3, 1-(3-Bromo-5-trifluoromethyl-phenyl)-3-(4-chloro-3-trifluoromethyl-phenyl)-thiourea] the MIC [1] was 1 µg/mL (≈ 2.09 µM), the “Minimum Inhibitory Concentration (MIC) E. faecalis VanB E80-8” value [1] was 1 micrograms/ml and the MIC [2, 11] was 0.125 µg/mL (≈ 0.262 µM). It also gave an MIC [2, 12] of 0.125 µg/mL (≈ 0.262 µM), an MIC [3, 13] of 0.5 µg/mL (≈ 1.05 µM) and an MIC [3, 14] of 0.5 µg/mL (≈ 1.05 µM). For the same compound, the MIC [4] was 0.25 µg/mL (≈ 0.523 µM), the “Minimum Inhibitory Concentration (MIC) S. aureus MRSA 39” value [4, 15] was 0.25 micrograms/ml and the “Minimum Inhibitory Concentration (MIC) S. aureus MRSA 39” value [4, 16] was 0.25 micrograms/ml. The MIC [5] was 0.25 µg/mL (≈ 0.523 µM), the “Minimum Inhibitory Concentration (MIC) S. epidermidis MRSE 70” value [5, 15] was 0.25 micrograms/ml and the “Minimum Inhibitory Concentration (MIC) S. epidermidis MRSE 70” value [5, 16] was 0.25 micrograms/ml. For the same compound, the MIC [6] was 0.25 µg/mL (≈ 0.523 µM), the MIC [7] was 0.25 µg/mL (≈ 0.523 µM) and the “Minimum Inhibitory Concentration (MIC) S. pyogenes GAS-1” value [7] was 0.25 micrograms/ml. The MIC [8] was 1 µg/mL (≈ 2.09 µM), the MIC [9] was 1 µg/mL (≈ 2.09 µM) and the MIC [10] was no more than 0.03 µg/mL.
With `O=C(Nc1cc(Cl)cc(C(F)(F)F)c1)Nc1ccc(Cl)c(C(F)(F)F)c1` [Example 2, 1-(3-Chloro-5-trifluoromethyl-phenyl)-3-(4-chloro-3-trifluoromethyl-phenyl)-urea] the MIC [1] was 1 µg/mL (≈ 2.4 µM), the “Minimum Inhibitory Concentration (MIC) E. faecalis VanB E80-8” value [1] was 1 micrograms/ml and the MIC [2, 11] was 0.25 µg/mL (≈ 0.599 µM). The MIC [2, 12] was 0.25 µg/mL (≈ 0.599 µM), the MIC [3, 13] was 0.125 µg/mL (≈ 0.3 µM) and the MIC [3, 14] was 0.125 µg/mL (≈ 0.3 µM). For the same compound, the MIC [4] was 0.25 µg/mL (≈ 0.599 µM), the “Minimum Inhibitory Concentration (MIC) S. aureus MRSA 39” value [4, 15] was 0.25 micrograms/ml and the “Minimum Inhibitory Concentration (MIC) S. aureus MRSA 39” value [4, 16] was 0.25 micrograms/ml. For the same compound, the MIC [5] was 0.25 µg/mL (≈ 0.599 µM), the “Minimum Inhibitory Concentration (MIC) S. epidermidis MRSE 70” value [5, 15] was 0.25 micrograms/ml and the “Minimum Inhibitory Concentration (MIC) S. epidermidis MRSE 70” value [5, 16] was 0.25 micrograms/ml. For the same compound, the MIC [6] was 0.06 µg/mL (≈ 0.144 µM), the MIC [7] was 0.25 µg/mL (≈ 0.599 µM) and the “Minimum Inhibitory Concentration (MIC) S. pyogenes GAS-1” value [7] was 0.25 micrograms/ml. The MIC [8] was 0.5 µg/mL (≈ 1.2 µM), the MIC [9] was 1 µg/mL (≈ 2.4 µM) and the MIC [10] was no more than 0.03 µg/mL.

Reference: patent publication US20090023813A1, “Diphenyl Urea Derivatives” (Arpida AG, priority 2005, published 2009)
